Experiments:
Assay in all cases: fitness (endpoint OD595 vs no drug) (fraction); higher = more growth
S. aureus Newman = tested on: S. aureus Newman
How it was run: (§1)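 Fitness is computed from the optical density at which cultures reach stationary phase, divided by the robust mean of no-drug control wells. Any value above 1 is set to 1. Cultures started at OD595 0.01 in 384-well plates with TSB, LB Lennox or CY at 37 °C, and OD595 was read every 30 min for 14 h against a first-reading background.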

S. pneumoniae D39V = tested on: S. pneumoniae D39V
How it was run: as §1

B. subtilis 168 = tested on: B. subtilis 168
How it was run: as §1

[1] = first compound 0.25 µg/mL, partner 0.007 µg/mL
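Also: OD595 on entry to stationary phase over no-drug wells; at most 1.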

## O=C(O)c1cn(C2CC2)c2cc(N3CCNCC3)c(F)cc2c1=O [Ciprofloxacin] + CO/N=C(\C(=O)N[C@@H]1C(=O)N2C(C(=O)O)=C(COC(C)=O)CS[C@H]12)c1csc(N)n1 [Cefotaxime]
S. aureus Newman; first compound 0.0375 µg/mL, partner 0.039 µg/mL, one replicate
  fitness: 0.633
S. aureus Newman; first compound 0.0375 µg/mL, partner 0.078 µg/mL
  fitness: 0.578
S. aureus Newman; first compound 0.0375 µg/mL, partner 0.156 µg/mL
  fitness: 0.489
S. aureus Newman; first compound 0.0375 µg/mL, partner 0.312 µg/mL, one replicate
  fitness: 0.217
S. aureus Newman; first compound 0.0375 µg/mL, partner 0.625 µg/mL
  fitness: 0.0622
S. aureus Newman; first compound 0.0375 µg/mL, partner 1.25 µg/mL
  fitness: 0.0267
S. aureus Newman; first compound 0.0375 µg/mL, partner 2.5 µg/mL
  fitness: 0.0312
S. aureus Newman; first compound 0.075 µg/mL, partner 0.039 µg/mL, one replicate
  fitness: 0.691
S. aureus Newman; first compound 0.075 µg/mL, partner 0.078 µg/mL
  fitness: 0.518
S. aureus Newman; first compound 0.075 µg/mL, partner 0.312 µg/mL, one replicate
  fitness: 0.0389
S. aureus Newman; first compound 0.075 µg/mL, partner 0.625 µg/mL
  fitness: 0.0809
S. aureus Newman; first compound 0.075 µg/mL, partner 1.25 µg/mL
  fitness: 0.0731
S. aureus Newman; first compound 0.075 µg/mL, partner 2.5 µg/mL
  fitness: 0.0893
S. aureus Newman; first compound 0.15 µg/mL, partner 0.039 µg/mL, one replicate
  fitness: 0.0625
S. aureus Newman; first compound 0.15 µg/mL, partner 0.078 µg/mL
  fitness: 0.0493
S. aureus Newman; first compound 0.15 µg/mL, partner 0.156 µg/mL
  fitness: 0.0219
S. aureus Newman; first compound 0.15 µg/mL, partner 0.312 µg/mL, one replicate
  fitness: 0.0381
S. aureus Newman; first compound 0.15 µg/mL, partner 0.625 µg/mL
  fitness: 0.0244
S. aureus Newman; first compound 0.15 µg/mL, partner 1.25 µg/mL
  fitness: 0.0309
S. aureus Newman; first compound 0.15 µg/mL, partner 2.5 µg/mL
  fitness: 0.0543
S. pneumoniae D39V; first compound 0.125 µg/mL, partner 0.0018 µg/mL
  fitness: 0.992
S. pneumoniae D39V; first compound 0.125 µg/mL, partner 0.0035 µg/mL
  fitness: 0.95
S. pneumoniae D39V; first compound 0.25 µg/mL, partner 0.0018 µg/mL
  fitness: 0.919
S. pneumoniae D39V; first compound 0.25 µg/mL, partner 0.0035 µg/mL
  fitness: 0.962
S. pneumoniae D39V; [1]
  fitness: 0.873
S. pneumoniae D39V; first compound 0.5 µg/mL, partner 0.0018 µg/mL
  fitness: 0.809
S. pneumoniae D39V; first compound 0.5 µg/mL, partner 0.0035 µg/mL
  fitness: 0.803
B. subtilis 168; first compound 0.0098 µg/mL, partner 0.00775 µg/mL, one replicate
  fitness: 0.764
B. subtilis 168; first compound 0.0098 µg/mL, partner 0.0155 µg/mL, one replicate
  fitness: 0.594
B. subtilis 168; first compound 0.0098 µg/mL, partner 0.031 µg/mL, one replicate
  fitness: 0.347
B. subtilis 168; first compound 0.0098 µg/mL, partner 0.0625 µg/mL, one replicate
  fitness: 0.475
B. subtilis 168; first compound 0.0098 µg/mL, partner 0.125 µg/mL, one replicate
  fitness: 0.333
B. subtilis 168; first compound 0.0098 µg/mL, partner 0.25 µg/mL, one replicate
  fitness: 0.263
B. subtilis 168; first compound 0.0098 µg/mL, partner 0.5 µg/mL
  fitness: 0.141
B. subtilis 168; first compound 0.0098 µg/mL, partner 1 µg/mL
  fitness: 0.0495
B. subtilis 168; first compound 0.0098 µg/mL, partner 2 µg/mL
  fitness: 0.0625
B. subtilis 168; first compound 0.0195 µg/mL, partner 0.00775 µg/mL, one replicate
  fitness: 0.546
B. subtilis 168; first compound 0.0195 µg/mL, partner 0.0155 µg/mL, one replicate
  fitness: 0.205
B. subtilis 168; first compound 0.0195 µg/mL, partner 0.031 µg/mL, one replicate
  fitness: 0.063
B. subtilis 168; first compound 0.0195 µg/mL, partner 0.0625 µg/mL, one replicate
  fitness: 0.231
B. subtilis 168; first compound 0.0195 µg/mL, partner 0.125 µg/mL, one replicate
  fitness: 0.129
B. subtilis 168; first compound 0.0195 µg/mL, partner 0.25 µg/mL, one replicate
  fitness: 0.0436
B. subtilis 168; first compound 0.0195 µg/mL, partner 0.5 µg/mL
  fitness: 0.0302
B. subtilis 168; first compound 0.0195 µg/mL, partner 1 µg/mL
  fitness: 0.0272
B. subtilis 168; first compound 0.0195 µg/mL, partner 2 µg/mL
  fitness: 0.0392
B. subtilis 168; first compound 0.039 µg/mL, partner 0.00775 µg/mL, one replicate
  fitness: 0.0504
B. subtilis 168; first compound 0.039 µg/mL, partner 0.0155 µg/mL, one replicate
  fitness: 0.0283
B. subtilis 168; first compound 0.039 µg/mL, partner 0.031 µg/mL, one replicate
  fitness: 0.045
B. subtilis 168; first compound 0.039 µg/mL, partner 0.0625 µg/mL, one replicate
  fitness: 0.0338
B. subtilis 168; first compound 0.039 µg/mL, partner 0.125 µg/mL, one replicate
  fitness: 0.0283
B. subtilis 168; first compound 0.039 µg/mL, partner 0.25 µg/mL, one replicate
  fitness: 0.0507
B. subtilis 168; first compound 0.039 µg/mL, partner 0.5 µg/mL
  fitness: 0.0615
B. subtilis 168; first compound 0.039 µg/mL, partner 1 µg/mL
  fitness: 0.0416
B. subtilis 168; first compound 0.039 µg/mL, partner 2 µg/mL
  fitness: 0.0569

## O=C(O)c1cn(C2CC2)c2cc(N3CCNCC3)c(F)cc2c1=O [Ciprofloxacin] + CO/N=C(\C(=O)N[C@@H]1C(=O)N2C(C(=O)O)=C(COC(N)=O)CS[C@H]12)c1ccco1 [Cefuroxime]
S. aureus Newman; first compound 0.078 µg/mL, partner 0.04875 µg/mL, one replicate
  fitness: 0.554
S. aureus Newman; first compound 0.078 µg/mL, partner 0.0975 µg/mL, one replicate
  fitness: 0.441
S. aureus Newman; first compound 0.078 µg/mL, partner 0.195 µg/mL, one replicate
  fitness: 0.469
S. aureus Newman; first compound 0.156 µg/mL, partner 0.04875 µg/mL, one replicate
  fitness: 0.0634
S. aureus Newman; first compound 0.156 µg/mL, partner 0.0975 µg/mL, one replicate
  fitness: 0.0619
S. aureus Newman; first compound 0.156 µg/mL, partner 0.195 µg/mL, one replicate
  fitness: 0.0412
S. aureus Newman; first compound 0.312 µg/mL, partner 0.04875 µg/mL, one replicate
  fitness: 0.0573
S. aureus Newman; first compound 0.312 µg/mL, partner 0.0975 µg/mL, one replicate
  fitness: 0.0666
S. aureus Newman; first compound 0.312 µg/mL, partner 0.195 µg/mL, one replicate
  fitness: 0.061
B. subtilis 168; first compound 0.0098 µg/mL, partner 0.04875 µg/mL
  fitness: 0.632
B. subtilis 168; first compound 0.0098 µg/mL, partner 0.195 µg/mL
  fitness: 0.317
B. subtilis 168; first compound 0.0098 µg/mL, partner 0.39 µg/mL, one replicate
  fitness: 0.266
B. subtilis 168; first compound 0.0098 µg/mL, partner 0.78 µg/mL, one replicate
  fitness: 0.224
B. subtilis 168; first compound 0.0098 µg/mL, partner 1.562 µg/mL, one replicate
  fitness: 0.24
B. subtilis 168; first compound 0.0098 µg/mL, partner 3.125 µg/mL, one replicate
  fitness: 0.179
B. subtilis 168; first compound 0.0098 µg/mL, partner 6.25 µg/mL, one replicate
  fitness: 0.0609
B. subtilis 168; first compound 0.0195 µg/mL, partner 0.04875 µg/mL
  fitness: 0.391
B. subtilis 168; first compound 0.0195 µg/mL, partner 0.0975 µg/mL
  fitness: 0.212
B. subtilis 168; first compound 0.0195 µg/mL, partner 0.195 µg/mL
  fitness: 0.0634
B. subtilis 168; first compound 0.0195 µg/mL, partner 0.39 µg/mL, one replicate
  fitness: 0.0291
B. subtilis 168; first compound 0.0195 µg/mL, partner 0.78 µg/mL, one replicate
  fitness: 0.0398
B. subtilis 168; first compound 0.0195 µg/mL, partner 1.562 µg/mL, one replicate
  fitness: 0.0343
B. subtilis 168; first compound 0.0195 µg/mL, partner 3.125 µg/mL, one replicate
  fitness: 0.0254
B. subtilis 168; first compound 0.0195 µg/mL, partner 6.25 µg/mL, one replicate
  fitness: 0.0167
B. subtilis 168; first compound 0.039 µg/mL, partner 0.04875 µg/mL
  fitness: 0.042
B. subtilis 168; first compound 0.039 µg/mL, partner 0.0975 µg/mL
  fitness: 0.0421
B. subtilis 168; first compound 0.039 µg/mL, partner 0.195 µg/mL
  fitness: 0.0359
B. subtilis 168; first compound 0.039 µg/mL, partner 0.39 µg/mL, one replicate
  fitness: 0.0168
B. subtilis 168; first compound 0.039 µg/mL, partner 0.78 µg/mL, one replicate
  fitness: 0.0177
B. subtilis 168; first compound 0.039 µg/mL, partner 1.562 µg/mL, one replicate
  fitness: 0.0261
B. subtilis 168; first compound 0.039 µg/mL, partner 3.125 µg/mL, one replicate
  fitness: 0.0302
B. subtilis 168; first compound 0.039 µg/mL, partner 6.25 µg/mL, one replicate
  fitness: 0.0254

## O=C(O)c1cn(C2CC2)c2cc(N3CCNCC3)c(F)cc2c1=O [Ciprofloxacin] + CO/N=C(\C(=O)N[C@@H]1C(=O)N2C(C(=O)[O-])=C(C[N+]3(C)CCCC3)CS[C@H]12)c1csc(N)n1 [Cefepime]
S. aureus Newman; first compound 0.0375 µg/mL, partner 0.125 µg/mL
  fitness: 0.764
S. aureus Newman; first compound 0.0375 µg/mL, partner 0.25 µg/mL
  fitness: 0.684
S. aureus Newman; first compound 0.0375 µg/mL, partner 0.5 µg/mL
  fitness: 0.642
S. aureus Newman; first compound 0.075 µg/mL, partner 0.125 µg/mL
  fitness: 0.686
S. aureus Newman; first compound 0.075 µg/mL, partner 0.25 µg/mL
  fitness: 0.667
S. aureus Newman; first compound 0.075 µg/mL, partner 0.5 µg/mL
  fitness: 0.604
S. pneumoniae D39V; first compound 0.125 µg/mL, partner 0.007 µg/mL
  fitness: 0.991
S. pneumoniae D39V; first compound 0.125 µg/mL, partner 0.0078 µg/mL
  fitness: ≥ 1
S. pneumoniae D39V; first compound 0.125 µg/mL, partner 0.014 µg/mL
  fitness: ≥ 1
S. pneumoniae D39V; first compound 0.125 µg/mL, partner 0.0155 µg/mL
  fitness: 0.935
S. pneumoniae D39V; first compound 0.125 µg/mL, partner 0.028 µg/mL
  fitness: 0.917
S. pneumoniae D39V; [1]
  fitness: 0.942
S. pneumoniae D39V; first compound 0.25 µg/mL, partner 0.0078 µg/mL, one replicate
  fitness: 0.929
S. pneumoniae D39V; first compound 0.25 µg/mL, partner 0.014 µg/mL
  fitness: 0.972
S. pneumoniae D39V; first compound 0.25 µg/mL, partner 0.0155 µg/mL, one replicate
  fitness: 0.959
S. pneumoniae D39V; first compound 0.25 µg/mL, partner 0.028 µg/mL
  fitness: 0.841
S. pneumoniae D39V; first compound 0.25 µg/mL, partner 0.031 µg/mL, one replicate
  fitness: 0.741
S. pneumoniae D39V; first compound 0.5 µg/mL, partner 0.007 µg/mL
  fitness: 0.877
S. pneumoniae D39V; first compound 0.5 µg/mL, partner 0.0078 µg/mL
  fitness: 0.811
S. pneumoniae D39V; first compound 0.5 µg/mL, partner 0.014 µg/mL
  fitness: 0.903
S. pneumoniae D39V; first compound 0.5 µg/mL, partner 0.0155 µg/mL
  fitness: 0.734
S. pneumoniae D39V; first compound 0.5 µg/mL, partner 0.028 µg/mL
  fitness: 0.779
S. pneumoniae D39V; first compound 0.5 µg/mL, partner 0.031 µg/mL
  fitness: 0.289
